Data: ChEMBL document CHEMBL1201862, “PubChem BioAssay data set” (2004)
Activity calls are given as the source filed them.

Assays:
[1] = target: T1, Mannose-6-phosphate isomerase (Homo sapiens, UniProt P34949); experiment: PMI enzyme inhibitors, confirmation, biochemical, fluorescence intensity (AID 1535)
T1 sequence (P34949 whole entry): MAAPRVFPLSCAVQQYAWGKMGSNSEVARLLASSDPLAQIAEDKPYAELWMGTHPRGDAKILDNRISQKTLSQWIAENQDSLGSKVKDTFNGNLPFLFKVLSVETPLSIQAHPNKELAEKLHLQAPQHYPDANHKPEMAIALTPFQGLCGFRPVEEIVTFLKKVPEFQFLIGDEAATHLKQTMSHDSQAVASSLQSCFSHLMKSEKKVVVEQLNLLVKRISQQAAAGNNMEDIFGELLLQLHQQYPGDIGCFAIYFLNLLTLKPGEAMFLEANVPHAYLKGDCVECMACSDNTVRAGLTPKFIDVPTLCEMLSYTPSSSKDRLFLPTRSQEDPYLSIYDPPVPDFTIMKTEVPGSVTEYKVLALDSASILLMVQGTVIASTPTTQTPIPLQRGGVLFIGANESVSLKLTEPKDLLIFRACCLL

Phosphomannomutase 2 = Phosphomannomutase 2 (Homo sapiens, UniProt O15305); experiment: Counter screen SAR assay for PMM2 inhibitors via a fluorescence intensity assay. [Related pubchem assays (depositor defined):AID1545, AID1574]
Cytochrome P450 1A2 = target: T2, Cytochrome P450 1A2 (Homo sapiens, UniProt P05177);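 further: PubChem cytochrome P450 panel assay, CYP1A2 panel member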
T2 sequence (P05177 whole entry): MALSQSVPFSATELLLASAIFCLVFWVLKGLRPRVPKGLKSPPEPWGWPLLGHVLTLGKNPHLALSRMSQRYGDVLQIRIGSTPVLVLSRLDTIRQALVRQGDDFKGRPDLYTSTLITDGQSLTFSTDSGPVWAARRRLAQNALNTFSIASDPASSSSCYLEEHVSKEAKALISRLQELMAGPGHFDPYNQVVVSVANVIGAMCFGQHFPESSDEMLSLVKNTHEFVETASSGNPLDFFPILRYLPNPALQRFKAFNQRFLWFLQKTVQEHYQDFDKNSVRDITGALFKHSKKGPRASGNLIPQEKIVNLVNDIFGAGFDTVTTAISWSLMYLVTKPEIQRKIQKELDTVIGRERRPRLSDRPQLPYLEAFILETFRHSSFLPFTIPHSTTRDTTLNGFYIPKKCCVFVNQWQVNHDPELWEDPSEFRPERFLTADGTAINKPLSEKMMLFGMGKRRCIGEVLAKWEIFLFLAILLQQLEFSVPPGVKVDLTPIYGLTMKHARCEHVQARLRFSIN

[2] = target: T3, Tyrosine-protein phosphatase non-receptor type 7 (Homo sapiens, UniProt P35236); type: functional
T3 sequence (P35236 whole entry): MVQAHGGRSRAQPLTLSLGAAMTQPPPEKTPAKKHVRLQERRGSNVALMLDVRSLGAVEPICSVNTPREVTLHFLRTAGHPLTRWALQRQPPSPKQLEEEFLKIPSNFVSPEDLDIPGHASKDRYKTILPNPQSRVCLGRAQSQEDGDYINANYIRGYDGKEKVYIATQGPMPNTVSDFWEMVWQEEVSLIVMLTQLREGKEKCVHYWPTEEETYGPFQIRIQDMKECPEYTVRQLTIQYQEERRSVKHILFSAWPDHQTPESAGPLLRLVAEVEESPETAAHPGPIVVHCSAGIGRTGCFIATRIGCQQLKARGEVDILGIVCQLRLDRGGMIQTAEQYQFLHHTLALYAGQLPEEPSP

[3] = target: T4, Tyrosine-protein phosphatase non-receptor type 22 (Homo sapiens, UniProt Q9Y2R2); type: functional
T4 sequence (Q9Y2R2 whole entry): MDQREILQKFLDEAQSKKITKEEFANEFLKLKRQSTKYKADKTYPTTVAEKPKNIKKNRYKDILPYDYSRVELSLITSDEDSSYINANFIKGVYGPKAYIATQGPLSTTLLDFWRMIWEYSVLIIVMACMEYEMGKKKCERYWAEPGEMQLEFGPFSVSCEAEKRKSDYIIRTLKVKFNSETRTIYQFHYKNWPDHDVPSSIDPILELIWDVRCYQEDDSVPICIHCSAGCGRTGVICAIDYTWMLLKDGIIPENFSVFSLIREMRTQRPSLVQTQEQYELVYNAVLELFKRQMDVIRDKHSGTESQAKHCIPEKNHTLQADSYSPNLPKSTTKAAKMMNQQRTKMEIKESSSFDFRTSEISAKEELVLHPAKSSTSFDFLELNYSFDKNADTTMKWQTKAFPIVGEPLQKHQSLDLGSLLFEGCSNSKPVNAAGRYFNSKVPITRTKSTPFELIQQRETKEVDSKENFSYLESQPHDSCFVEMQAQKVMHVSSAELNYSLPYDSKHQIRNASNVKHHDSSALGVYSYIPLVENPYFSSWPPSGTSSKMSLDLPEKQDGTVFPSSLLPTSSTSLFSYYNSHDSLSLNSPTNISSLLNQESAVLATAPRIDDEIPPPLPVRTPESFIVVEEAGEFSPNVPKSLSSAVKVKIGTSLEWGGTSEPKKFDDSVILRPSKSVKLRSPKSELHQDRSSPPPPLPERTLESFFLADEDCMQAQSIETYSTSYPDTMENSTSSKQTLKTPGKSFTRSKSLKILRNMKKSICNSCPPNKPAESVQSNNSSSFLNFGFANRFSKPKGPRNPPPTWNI

Hexokinase HKDC1 = target: T5, Hexokinase HKDC1 (Homo sapiens, UniProt Q2TB90); experiment: HKDC1 hexokinase activators, dose response, biochemical, W721R variant (AID 504730); type: functional
T5 sequence (Q2TB90 whole entry): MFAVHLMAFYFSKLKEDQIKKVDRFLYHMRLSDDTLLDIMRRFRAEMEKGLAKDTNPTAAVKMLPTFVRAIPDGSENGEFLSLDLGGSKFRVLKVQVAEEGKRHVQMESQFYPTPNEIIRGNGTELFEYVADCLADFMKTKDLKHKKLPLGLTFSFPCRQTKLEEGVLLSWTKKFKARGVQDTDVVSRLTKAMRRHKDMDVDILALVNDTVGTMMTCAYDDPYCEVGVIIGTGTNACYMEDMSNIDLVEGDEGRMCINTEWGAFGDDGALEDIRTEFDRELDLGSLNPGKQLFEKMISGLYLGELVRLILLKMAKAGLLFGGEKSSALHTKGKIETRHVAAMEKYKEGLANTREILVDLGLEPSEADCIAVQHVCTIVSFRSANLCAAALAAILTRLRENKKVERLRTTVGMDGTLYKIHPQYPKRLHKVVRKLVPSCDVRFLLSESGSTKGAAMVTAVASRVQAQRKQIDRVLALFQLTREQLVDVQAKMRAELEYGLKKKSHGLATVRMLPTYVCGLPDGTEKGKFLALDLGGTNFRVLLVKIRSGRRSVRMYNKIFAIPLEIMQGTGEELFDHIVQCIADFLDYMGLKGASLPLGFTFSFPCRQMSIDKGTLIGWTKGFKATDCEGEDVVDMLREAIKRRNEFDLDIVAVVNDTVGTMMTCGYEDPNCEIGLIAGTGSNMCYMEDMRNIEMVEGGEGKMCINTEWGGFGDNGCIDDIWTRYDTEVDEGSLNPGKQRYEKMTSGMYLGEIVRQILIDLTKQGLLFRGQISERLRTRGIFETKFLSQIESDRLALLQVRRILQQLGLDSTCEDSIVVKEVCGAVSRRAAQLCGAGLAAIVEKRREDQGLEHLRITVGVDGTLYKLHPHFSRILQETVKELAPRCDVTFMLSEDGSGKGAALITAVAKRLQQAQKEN

[4] = target: T4, Tyrosine-protein phosphatase non-receptor type 22; type: functional; remark: listed apart in the source
Hexokinase-1 = target: T6, Hexokinase-1 (Homo sapiens, UniProt P19367); experiment: hexokinase 1 activators, dose response, selectivity assay for HKDC1 activator project, biochemical (AID 504762); type: functional
T6 sequence (P19367 whole entry): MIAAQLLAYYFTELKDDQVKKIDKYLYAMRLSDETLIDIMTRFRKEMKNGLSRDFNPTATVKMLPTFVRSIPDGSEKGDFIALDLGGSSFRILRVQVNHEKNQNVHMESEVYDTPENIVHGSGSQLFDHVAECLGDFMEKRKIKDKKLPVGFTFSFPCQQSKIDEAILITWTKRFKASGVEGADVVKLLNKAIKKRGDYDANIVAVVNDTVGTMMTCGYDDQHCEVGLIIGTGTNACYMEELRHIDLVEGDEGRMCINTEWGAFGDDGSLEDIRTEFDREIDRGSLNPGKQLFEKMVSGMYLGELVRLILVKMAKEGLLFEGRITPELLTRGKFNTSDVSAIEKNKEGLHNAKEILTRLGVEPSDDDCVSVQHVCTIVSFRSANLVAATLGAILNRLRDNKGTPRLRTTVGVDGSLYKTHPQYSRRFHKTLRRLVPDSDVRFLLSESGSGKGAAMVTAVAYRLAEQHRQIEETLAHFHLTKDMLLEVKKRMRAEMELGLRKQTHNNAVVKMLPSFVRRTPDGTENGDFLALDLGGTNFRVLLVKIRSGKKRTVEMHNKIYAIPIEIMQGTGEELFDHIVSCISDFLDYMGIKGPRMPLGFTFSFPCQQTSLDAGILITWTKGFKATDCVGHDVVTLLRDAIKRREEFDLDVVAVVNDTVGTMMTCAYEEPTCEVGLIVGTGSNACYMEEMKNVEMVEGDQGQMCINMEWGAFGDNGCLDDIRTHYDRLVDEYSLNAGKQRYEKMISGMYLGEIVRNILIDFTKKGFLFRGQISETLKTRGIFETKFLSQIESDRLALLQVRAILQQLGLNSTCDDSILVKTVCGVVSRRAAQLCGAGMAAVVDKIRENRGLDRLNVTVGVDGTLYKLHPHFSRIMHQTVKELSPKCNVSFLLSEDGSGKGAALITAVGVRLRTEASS

[5] = HEp-2 cell cytotoxicity, dose response, cytotoxicity control for RSV inhibitor project, HTS (AID 2410); type: functional; conditions: human respiratory syncytial virus
[6] = target: T7, Delta-type opioid receptor (Homo sapiens, UniProt P41143); experiment: HTS Image-Based Screen for Antagonists of the DOR Receptor. [Related pubchem assays (depositor defined):AID1777, AID1785, AID1786, AID2133]; type: functional
Mu-type opioid receptor = Mu-type opioid receptor (Homo sapiens, UniProt P35372); experiment: HTS Image-Based Screen for Agonists of the MOR Receptor. [Related pubchem assays (depositor defined):AID1777, AID1785, AID1786, AID2133]; type: functional;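 further: imaging of beta-arrestin GFP recruitment into spots after receptor activation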
[7] = target: T7, Delta-type opioid receptor; experiment: HTS Image-Based Screen for Agonists of the DOR Receptor. [Related pubchem assays (depositor defined):AID1777, AID1786, AID2133]; type: functional
[8] = target: T8, Kappa-type opioid receptor (Homo sapiens, UniProt P41145); type: functional
Beta-galactosidase = Beta-galactosidase (Escherichia coli, UniProt Q8VNN2); type: functional
[9] = target: T8, Kappa-type opioid receptor; type: functional; remark: listed apart in the source
HEK293 [10] = experiment: NOD1 signaling inhibitors, primary screen, cell-based, luminescence, uHTS (AID 1578); type: functional; conditions: Homo sapiens
HEK293 [11] = experiment: cells; type: functional, cell-based; conditions: Homo sapiens
HEK293 [12] = experiment: cells; type: functional, cell-based; conditions: Homo sapiens; remark: listed apart in the source
[13] = target: Nucleotide-binding oligomerization domain-containing protein 2 (Homo sapiens, UniProt Q9HC29); experiment: NOD2 signaling inhibitors, cell-based, luminescence, uHTS, HEK293 (AID 1566); type: functional
HEK293 [14] = experiment: NOD2 signaling inhibitors in MDP-stimulated cells, cell-based, uHTS, luminescence (AID 2001); type: functional; conditions: Homo sapiens
HEK293 [15] = experiment: cells; type: functional, cell-based; conditions: Homo sapiens; remark: listed apart in the source
Exodeoxyribonuclease V = Exodeoxyribonuclease V (Escherichia coli (strain K12), UniProt P04993+P07648+P08394); experiment: E. coli RecBCD inhibitors, dose response, counter-screen for AddAB inhibitor project, absorbance, V66 E. coli, mutant T4 phage (AID 492957); type: functional, cell-based, Escherichia coli str. K-12 substr. MG1655
[16] = THP-1 cell cytotoxicity, dose response, cytotoxicity control for non-replicating M. tuberculosis project (AID 489025); type: functional
[17] = Counterscreen for AddAB inhibitors: absorbance-based bacterial cell-based high throughput dose response assay for inhibitors of bacterial viability. [Related pubchem assays (depositor defined):AID435030, AID449728, AID449731, AID488942, AID488955, AID488956]; type: functional
cells = type: functional

T8 sequence (P41145 whole entry): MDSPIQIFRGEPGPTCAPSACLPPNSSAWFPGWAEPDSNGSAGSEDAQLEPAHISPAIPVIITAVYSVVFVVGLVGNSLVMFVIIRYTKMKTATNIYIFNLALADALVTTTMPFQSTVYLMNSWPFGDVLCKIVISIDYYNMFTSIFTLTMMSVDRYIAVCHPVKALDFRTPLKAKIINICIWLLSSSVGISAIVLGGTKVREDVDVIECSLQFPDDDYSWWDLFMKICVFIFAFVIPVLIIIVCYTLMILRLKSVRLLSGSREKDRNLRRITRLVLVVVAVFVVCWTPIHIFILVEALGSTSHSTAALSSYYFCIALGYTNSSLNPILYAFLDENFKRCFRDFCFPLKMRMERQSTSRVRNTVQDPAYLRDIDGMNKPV
T7 sequence (P41143 whole entry): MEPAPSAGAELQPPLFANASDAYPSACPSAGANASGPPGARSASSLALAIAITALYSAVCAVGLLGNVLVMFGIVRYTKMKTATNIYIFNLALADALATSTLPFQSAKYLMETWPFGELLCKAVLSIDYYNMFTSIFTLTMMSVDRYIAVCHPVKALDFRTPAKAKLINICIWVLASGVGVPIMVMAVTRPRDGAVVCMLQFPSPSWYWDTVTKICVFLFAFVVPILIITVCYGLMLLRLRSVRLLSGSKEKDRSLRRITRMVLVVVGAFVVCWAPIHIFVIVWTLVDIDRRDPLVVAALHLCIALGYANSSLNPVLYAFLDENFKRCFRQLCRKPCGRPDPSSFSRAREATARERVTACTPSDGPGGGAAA
Chain of Exodeoxyribonuclease V (P04993 whole entry): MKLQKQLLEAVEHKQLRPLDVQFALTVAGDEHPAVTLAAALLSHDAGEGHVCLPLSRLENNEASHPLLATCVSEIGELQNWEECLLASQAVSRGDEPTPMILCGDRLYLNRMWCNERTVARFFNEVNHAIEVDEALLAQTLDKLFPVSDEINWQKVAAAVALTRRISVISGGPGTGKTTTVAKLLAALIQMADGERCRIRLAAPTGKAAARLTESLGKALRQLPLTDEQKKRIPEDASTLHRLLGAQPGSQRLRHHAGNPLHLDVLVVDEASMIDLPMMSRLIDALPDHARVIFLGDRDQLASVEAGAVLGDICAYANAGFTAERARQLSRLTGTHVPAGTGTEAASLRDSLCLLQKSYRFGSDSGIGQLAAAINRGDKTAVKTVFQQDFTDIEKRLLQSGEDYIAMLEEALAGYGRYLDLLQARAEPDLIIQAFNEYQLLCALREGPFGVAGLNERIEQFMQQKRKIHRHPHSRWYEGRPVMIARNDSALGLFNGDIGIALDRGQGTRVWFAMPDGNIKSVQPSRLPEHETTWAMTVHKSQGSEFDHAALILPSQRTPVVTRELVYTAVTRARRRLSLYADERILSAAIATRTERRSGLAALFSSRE
Chain of Exodeoxyribonuclease V (P07648 whole entry): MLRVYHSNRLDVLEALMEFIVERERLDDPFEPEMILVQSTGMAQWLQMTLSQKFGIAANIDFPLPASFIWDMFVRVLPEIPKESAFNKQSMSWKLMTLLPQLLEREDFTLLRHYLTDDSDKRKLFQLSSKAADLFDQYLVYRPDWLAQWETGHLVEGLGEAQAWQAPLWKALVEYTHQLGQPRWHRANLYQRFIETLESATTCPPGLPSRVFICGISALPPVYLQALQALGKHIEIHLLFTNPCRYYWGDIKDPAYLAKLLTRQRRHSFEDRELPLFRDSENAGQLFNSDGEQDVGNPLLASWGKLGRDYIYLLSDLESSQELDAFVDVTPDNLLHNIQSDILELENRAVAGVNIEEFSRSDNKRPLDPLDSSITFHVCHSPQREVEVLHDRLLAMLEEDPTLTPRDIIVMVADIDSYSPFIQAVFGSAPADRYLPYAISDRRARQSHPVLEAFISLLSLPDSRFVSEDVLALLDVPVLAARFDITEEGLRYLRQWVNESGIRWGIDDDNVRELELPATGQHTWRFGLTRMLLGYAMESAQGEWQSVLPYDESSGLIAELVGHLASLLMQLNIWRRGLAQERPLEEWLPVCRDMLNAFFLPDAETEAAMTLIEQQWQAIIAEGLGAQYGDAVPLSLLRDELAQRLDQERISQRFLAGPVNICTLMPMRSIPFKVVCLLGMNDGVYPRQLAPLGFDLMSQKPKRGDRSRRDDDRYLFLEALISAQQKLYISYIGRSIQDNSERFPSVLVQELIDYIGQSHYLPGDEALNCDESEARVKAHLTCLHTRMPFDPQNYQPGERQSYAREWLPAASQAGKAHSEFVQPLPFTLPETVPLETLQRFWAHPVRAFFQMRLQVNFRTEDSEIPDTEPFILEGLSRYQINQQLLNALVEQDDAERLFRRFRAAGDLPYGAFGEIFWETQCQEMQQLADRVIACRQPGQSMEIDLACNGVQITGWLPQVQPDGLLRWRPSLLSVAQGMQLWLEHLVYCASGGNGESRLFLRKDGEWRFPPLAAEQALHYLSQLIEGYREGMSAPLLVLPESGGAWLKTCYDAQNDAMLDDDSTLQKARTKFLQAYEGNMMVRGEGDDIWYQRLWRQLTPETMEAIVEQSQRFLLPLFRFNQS
Chain of Exodeoxyribonuclease V (P08394 whole entry): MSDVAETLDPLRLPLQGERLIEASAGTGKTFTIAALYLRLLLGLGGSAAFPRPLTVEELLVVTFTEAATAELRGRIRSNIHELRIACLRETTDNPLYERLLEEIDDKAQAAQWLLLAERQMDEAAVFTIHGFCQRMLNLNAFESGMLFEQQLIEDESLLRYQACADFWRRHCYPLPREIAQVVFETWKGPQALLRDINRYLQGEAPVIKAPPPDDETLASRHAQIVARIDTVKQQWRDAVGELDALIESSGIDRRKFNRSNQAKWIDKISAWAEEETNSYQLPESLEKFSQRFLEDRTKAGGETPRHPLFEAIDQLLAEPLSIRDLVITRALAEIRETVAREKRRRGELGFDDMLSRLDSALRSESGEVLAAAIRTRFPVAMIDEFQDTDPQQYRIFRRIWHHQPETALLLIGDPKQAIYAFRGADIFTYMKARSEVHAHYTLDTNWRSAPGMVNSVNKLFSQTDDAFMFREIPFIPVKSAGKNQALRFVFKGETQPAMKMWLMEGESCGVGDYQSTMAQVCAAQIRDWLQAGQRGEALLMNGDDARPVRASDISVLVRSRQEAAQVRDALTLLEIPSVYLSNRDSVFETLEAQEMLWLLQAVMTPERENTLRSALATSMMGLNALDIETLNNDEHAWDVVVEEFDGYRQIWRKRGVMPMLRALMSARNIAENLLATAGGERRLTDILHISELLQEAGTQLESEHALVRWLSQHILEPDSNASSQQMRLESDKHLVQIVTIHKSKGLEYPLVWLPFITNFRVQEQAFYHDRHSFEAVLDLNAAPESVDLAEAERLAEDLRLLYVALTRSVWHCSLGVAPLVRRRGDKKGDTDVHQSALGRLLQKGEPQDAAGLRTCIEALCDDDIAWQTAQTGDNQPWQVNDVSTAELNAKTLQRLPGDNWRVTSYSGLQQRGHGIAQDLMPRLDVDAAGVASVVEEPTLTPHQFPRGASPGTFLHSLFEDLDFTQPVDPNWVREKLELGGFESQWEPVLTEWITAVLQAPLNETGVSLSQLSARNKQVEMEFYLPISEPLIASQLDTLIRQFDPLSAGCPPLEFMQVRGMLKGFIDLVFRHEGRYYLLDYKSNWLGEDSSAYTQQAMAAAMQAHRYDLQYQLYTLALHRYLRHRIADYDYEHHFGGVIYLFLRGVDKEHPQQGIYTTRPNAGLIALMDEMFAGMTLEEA
Chain of Phosphomannomutase 2 (O15305 whole entry): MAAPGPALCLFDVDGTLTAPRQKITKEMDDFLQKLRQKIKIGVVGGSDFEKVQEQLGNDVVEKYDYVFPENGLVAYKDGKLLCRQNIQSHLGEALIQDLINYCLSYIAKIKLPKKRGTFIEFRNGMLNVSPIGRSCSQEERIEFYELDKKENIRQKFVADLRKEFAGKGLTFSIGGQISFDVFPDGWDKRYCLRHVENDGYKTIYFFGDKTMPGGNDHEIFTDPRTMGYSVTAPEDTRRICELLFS
Chain of Mu-type opioid receptor (P35372 whole entry): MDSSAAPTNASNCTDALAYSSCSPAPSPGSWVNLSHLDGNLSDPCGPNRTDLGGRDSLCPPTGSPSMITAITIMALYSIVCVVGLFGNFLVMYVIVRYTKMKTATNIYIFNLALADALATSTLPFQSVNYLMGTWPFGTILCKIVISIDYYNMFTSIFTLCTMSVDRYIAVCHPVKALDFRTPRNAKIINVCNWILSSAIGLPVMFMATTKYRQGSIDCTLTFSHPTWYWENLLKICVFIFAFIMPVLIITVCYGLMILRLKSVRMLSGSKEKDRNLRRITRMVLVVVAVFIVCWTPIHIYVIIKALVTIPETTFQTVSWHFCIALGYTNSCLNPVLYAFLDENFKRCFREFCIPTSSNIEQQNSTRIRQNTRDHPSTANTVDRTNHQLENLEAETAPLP

For `CCc1cc(CC)c(/N=c2\ssnc2Cl)c(CC)c1`, the IC50 [1] was > 100 µM (inactive) and the IC50 (Phosphomannomutase 2) was > 100 µM (inactive).
In the case of `N[C@H]1[C@@H](C(=O)O)[C@H]2C=C[C@H]1C2.O=S(=O)(O)c1ccccc1`, the AC50 (Cytochrome P450 1A2) is reported as “inactive”.
In the case of `COc1cc(SC#N)ccc1/N=C/c1c(C)[nH]n(-c2ccc(Cl)cc2)c1=O`, the IC50 [2] is reported as > 79.4 µM (inactive), the IC50 [3] is reported as > 79.4 µM (inactive) and the EC50 (Hexokinase HKDC1) is reported as > 80 µM (inactive). The IC50 [4] was > 79.4 µM (inactive) and the EC50 (Hexokinase-1) was > 80 µM (inactive).
For `Nc1c2c(nc3sc4c(c13)CCCC4)CCCC2`, the CC50 [5] was 25.7 µM (active), the IC50 [6] was > 32 µM (inactive) and the EC50 (Mu-type opioid receptor) was > 32 µM (inactive). For the same compound, the EC50 [7] was > 32 µM (inactive), the IC50 [8] was 9.82 µM (active) and the EC50 (Beta-galactosidase) was > 31.5 µM (inactive). For the same compound, the IC50 [9] was 6.99 µM.
With `Nc1nonc1C(=O)N/N=C/c1ccc([N+](=O)[O-])o1` the EC50 (HEK293 [10]) was 8.5 µM (active), the IC50 (HEK293 [11]) was > 20 µM (inactive) and the IC50 (HEK293 [12]) was > 20 µM (inactive). For the same compound, the EC50 [13] was 5.54 µM (active), the IC50 (HEK293 [14]) was > 20 µM (inactive) and the IC50 (HEK293 [15]) was > 20 µM (inactive). The IC50 (Exodeoxyribonuclease V) was 56.4 µM (inactive), the CC50 [16] was > 40 µM (active) and the IC50 [17] was 14.9 µM (inactive). For the same compound, the IC50 (cells) was 7.01 µM (active).
